One may read the inhibition as the share of the control response that was lost under treatment. Lower therefore signals a response near the control.

The values that follow come from patent publication US20090176811A1, “Substituted 5,6,7,8-Tetrahydro-pyrido[4,3-d]pyrimidine-2-yl Compounds and 5,6,7,8-Tetrahydro-quinazoline-2-yl Compounds” (GRUENENTHAL GmbH, priority 2004, published 2009).

One assay has as its target T1, mGluR5 receptor (Sus scrofa, UniProt I3LUI7).
T1 construct: 450 μg of protein from brain homogenate is incubated; from tissue; host or cells: pig brain hemispheres without medulla, cerebellum and pons
Put plainly: Affinity for the mGluR5 receptor ([3H]-MPEP binding, pig brain homogenate). The conditions noted are these: 10 μM compound, 15 nM [3H]-MPEP. As to the method: III. Method for Determining Affinity for the mGluR5 Receptor
Pig brain homogenate is produced by homogenisation (Polytron Pt 3000, Kinematica AG, 10,000 rpm (revolutions per minute) for 90 seconds) of pig brain hemispheres without medulla, cerebellum and pons in a buffer of pH 8.0 (30 mM Hepes, Sigma, order number H3375+1 tablet Complete Roche Diagnostics, order number 1836145 made up to 100 ml) in a ratio of 1:20 (brain weight/volume) and differential centrifugation at 900 g and 40,000 g. 450 μg of protein from brain homogenate is incubated in each case in 250 μl incubation batches in 96-well microtitre plates with 15 nM ^3[H]-MPEP (Tocris, order number R1212) and the compounds to be investigated (in each case 10 μM in the test) in the above-stated buffer at room temperature for 60 minutes.
The batches are then filtered with the assistance of a Brandel Cell Harvester (Brandel, Grade Robotic 9600) on Unifilter plates with glass filter mats (Perkin Elmer, order number 6005177) and then rewashed 3 times with buffer of the above-stated composition using 250 μl per sample. The filter plates are then dried for 60 minutes at 55° C. Then 30 μl of Ultima Gold scintillating material (Packard BioScience, order number 6013159) is added per well and after 3 hours the samples are measured using the B counter ([…], Perkin Elmer). Nonspecific binding is determined by the addition of 10 μM 2-methyl-6-(phenylethynyl)-pyridine (Tocris, order number 1212).

Another assay has as its target T2, NA transporter (Rattus norvegicus, UniProt Q63380).
T2 construct: from tissue; host or cells: rat hypothalamus synaptosomes (P2 fraction)
Put plainly: Noradrenalin uptake inhibition in rat brain synaptosomes (hypothalamus). Type of assay: biochemical. The text has this:
I. Method for Determining Noradrenalin and 5-HT Uptake Inhibition:
Synaptosomes from rat brain regions are freshly isolated for in vitro studies, as described in the publication “The isolation of nerve endings from brain” by E. G. Gray and V. P. Whittaker, J. Anatomy 96, pages 79-88, 1962. The corresponding literature description is hereby introduced as a reference and is deemed to be part of the disclosure.
The tissue (hypothalamus for the determination of noradrenalin uptake inhibition and medulla and pons for the determination of 5-HT uptake inhibition) is homogenised in ice-cooled 0.32 M sucrose (100 mg of tissue/1 mL) in a glass homogeniser with Teflon pestle using five complete up and down strokes at 840 revolutions/minute.
The homogenate is centrifuged at 4° C. for 10 minutes at 1000 g. After subsequent centrifugation at 17000 g for 55 minutes, the synaptosomes (P2 fraction) are obtained, which are resuspended in 0.32 M […] (0.5 mL/100 mg of original weight).
The particular uptake is measured in a 96-well microtitre plate. The volume is 250 μl and the incubation proceeds at room temperature (approx. 20-25° C.) under an O2 atmosphere.
The incubation time is 7.5 minutes for [^3H]-NA and 5 minutes for [^3H]-5-HT.
The 96 samples are then filtered through a Unifilter GF/B microtitre plate (Packard) and washed with 200 mL of incubated buffer using a “Brabdel MPXRI-96T Cell-Harvester”. The Unifilter GF/B plate is dried for 1 hour at 55° C. The plate is then sealed with a Back seal (Packard) and 35 μl of scintillation fluid are added per well (Ultima Gold, Packard). After sealing with a top seal (Packard) and establishing an equilibrium (around 5 hours), radioactivity is determined in a “Trilux 1450 Microbeta” (Wallac).
The quantity of protein used in the above determination corresponds to the values known from the literature, as for example described in “Protein measurement with the folin phenol reagent”, Lowry et al., J. Biol. Chem., 193, 265-275, 1951.
A detailed description of the method may additionally be found in the literature, for example in M. Ch. Frink, H.-H. Hennies, W. Engelberger, M. Haurand and B. Wilffert (1996) Arzneim.-Forsch./Drug Res. 46 (III), 11, 1029-1036.
The corresponding literature descriptions are hereby introduced in each case as a reference and are deemed to be part of the present disclosure.
The following characteristics were determined for the NA or 5-HT transporter: […]

Another assay deals with T3, 5-HT transporter (Rattus norvegicus, UniProt P31652).
T3 construct: from tissue; host or cells: rat medulla and pons synaptosomes (P2 fraction)
T3 sequence (P31652 whole entry): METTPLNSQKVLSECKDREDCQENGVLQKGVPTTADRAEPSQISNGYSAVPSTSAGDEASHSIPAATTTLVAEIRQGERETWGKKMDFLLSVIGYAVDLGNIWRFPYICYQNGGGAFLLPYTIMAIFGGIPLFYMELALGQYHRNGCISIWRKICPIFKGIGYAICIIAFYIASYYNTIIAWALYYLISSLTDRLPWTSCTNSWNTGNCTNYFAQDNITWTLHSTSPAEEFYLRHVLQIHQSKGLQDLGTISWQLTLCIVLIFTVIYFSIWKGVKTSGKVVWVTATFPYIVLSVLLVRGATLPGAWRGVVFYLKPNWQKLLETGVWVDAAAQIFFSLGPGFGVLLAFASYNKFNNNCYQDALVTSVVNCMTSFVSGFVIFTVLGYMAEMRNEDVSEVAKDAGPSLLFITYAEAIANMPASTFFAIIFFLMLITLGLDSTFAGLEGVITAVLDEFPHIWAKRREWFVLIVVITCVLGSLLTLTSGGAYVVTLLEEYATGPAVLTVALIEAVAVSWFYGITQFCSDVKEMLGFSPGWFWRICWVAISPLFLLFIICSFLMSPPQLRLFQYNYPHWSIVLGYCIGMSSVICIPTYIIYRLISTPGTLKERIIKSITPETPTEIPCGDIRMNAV
Put plainly: 5-HT uptake inhibition in rat brain synaptosomes (medulla and pons). The assay is classed as biochemical. A digest of the protocol: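 Freshly isolated P2 synaptosomes from rat hypothalamus (noradrenalin) or medulla and pons (5-HT) incubated at room temperature under O2 with [3H]-NA for 7.5 min or [3H]-5-HT for 5 min. Uptake measured by filtration and scintillation counting.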

T1 sequence (I3LUI7 19-1212): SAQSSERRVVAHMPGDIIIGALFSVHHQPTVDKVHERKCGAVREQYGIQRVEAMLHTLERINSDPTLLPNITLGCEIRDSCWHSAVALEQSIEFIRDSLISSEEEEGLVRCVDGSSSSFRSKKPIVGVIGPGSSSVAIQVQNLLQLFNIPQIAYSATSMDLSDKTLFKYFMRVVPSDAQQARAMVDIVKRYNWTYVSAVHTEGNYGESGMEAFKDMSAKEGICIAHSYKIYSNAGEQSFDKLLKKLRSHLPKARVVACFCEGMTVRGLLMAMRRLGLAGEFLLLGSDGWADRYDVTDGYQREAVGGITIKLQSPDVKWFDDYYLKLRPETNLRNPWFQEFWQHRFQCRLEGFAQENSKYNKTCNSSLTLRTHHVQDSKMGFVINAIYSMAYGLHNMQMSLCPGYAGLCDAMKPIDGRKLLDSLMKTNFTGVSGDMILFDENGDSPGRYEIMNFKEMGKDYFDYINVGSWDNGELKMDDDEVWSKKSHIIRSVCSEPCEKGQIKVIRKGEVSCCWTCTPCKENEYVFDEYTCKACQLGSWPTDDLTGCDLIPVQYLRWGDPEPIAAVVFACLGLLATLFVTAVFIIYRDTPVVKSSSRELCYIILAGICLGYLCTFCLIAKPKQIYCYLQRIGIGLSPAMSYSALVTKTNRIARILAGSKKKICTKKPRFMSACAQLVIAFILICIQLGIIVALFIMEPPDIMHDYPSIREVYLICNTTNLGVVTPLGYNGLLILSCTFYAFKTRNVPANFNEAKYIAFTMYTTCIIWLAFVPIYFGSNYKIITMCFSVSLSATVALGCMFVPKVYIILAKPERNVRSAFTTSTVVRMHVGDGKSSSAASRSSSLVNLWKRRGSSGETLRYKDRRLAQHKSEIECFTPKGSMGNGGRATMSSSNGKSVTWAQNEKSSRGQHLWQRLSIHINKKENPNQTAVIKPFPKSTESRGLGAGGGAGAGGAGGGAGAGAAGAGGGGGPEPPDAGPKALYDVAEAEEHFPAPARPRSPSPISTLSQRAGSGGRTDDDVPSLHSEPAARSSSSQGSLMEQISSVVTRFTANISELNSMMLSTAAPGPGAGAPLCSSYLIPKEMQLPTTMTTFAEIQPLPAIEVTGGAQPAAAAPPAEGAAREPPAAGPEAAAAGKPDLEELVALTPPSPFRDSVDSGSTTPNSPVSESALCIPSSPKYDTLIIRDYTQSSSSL
T2 sequence (Q63380 1-617): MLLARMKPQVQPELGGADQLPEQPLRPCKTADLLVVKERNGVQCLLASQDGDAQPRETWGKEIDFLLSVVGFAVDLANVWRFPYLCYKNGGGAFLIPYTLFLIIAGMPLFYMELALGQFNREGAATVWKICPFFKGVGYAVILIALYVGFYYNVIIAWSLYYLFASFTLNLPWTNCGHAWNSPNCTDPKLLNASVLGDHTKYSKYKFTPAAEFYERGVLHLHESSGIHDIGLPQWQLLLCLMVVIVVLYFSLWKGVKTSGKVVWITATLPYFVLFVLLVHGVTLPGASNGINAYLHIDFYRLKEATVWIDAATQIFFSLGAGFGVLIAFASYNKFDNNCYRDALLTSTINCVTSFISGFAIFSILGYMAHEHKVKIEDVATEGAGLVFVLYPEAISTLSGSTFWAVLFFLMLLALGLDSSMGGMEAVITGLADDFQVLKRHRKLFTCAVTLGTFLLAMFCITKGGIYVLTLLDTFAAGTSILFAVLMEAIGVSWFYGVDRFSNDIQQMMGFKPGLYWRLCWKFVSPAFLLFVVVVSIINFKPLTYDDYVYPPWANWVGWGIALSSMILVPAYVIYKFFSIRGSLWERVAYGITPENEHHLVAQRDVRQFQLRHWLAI

In the case of `O=C(Nc1ncc2c(n1)CCC(NS(=O)(=O)c1cc(Cl)sc1Cl)C2)c1cccs1` (stereo not drawn) [Example 180, thiophene-2-carboxylic acid [6-(2,5-dichloro-thiophene-3-sulfonylamino)-5,6,7,8-tetrahydro-quinazolin-2-yl]-amide], the inhibition at 10 µM is 86.7% at mGluR5 receptor and 34% against NA transporter.

`CCCC(=O)Nc1ncc2c(n1)CCC(NC(=O)C=Cc1cccc(C(F)(F)F)c1)C2` (stereo not drawn) [Example 168, N-(2-butyrylamino-5,6,7,8-tetrahydro-quinazolin-6-yl)-3-(3-trifluoromethyl-phenyl)-acrylamide] returned an inhibition at 10 µM at mGluR5 receptor of 33.5%. The same compound registered an inhibition at 1 µM on 5-HT transporter of 46%.

As to `O=C(Nc1ncc2c(n1)CCN(C(=O)c1ccc(Cl)c(Cl)c1)C2)c1cccnc1` [Example 156, N-[6-(3,4-dichloro-benzoyl)-5,6,7,8-tetrahydro-pyrido[4,3-d]pyrimidin-2-yl]-nicotinamide], the inhibition at 10 µM at mGluR5 receptor was determined as 46%; against NA transporter it was 50%.

As to `O=C(Nc1ncc2c(n1)CCN(C(=O)c1ccc(Cl)c(Cl)c1)C2)c1ccccc1F` [Example 113, N-[6-(3,4-dichloro-benzoyl)-5,6,7,8-tetrahydro-pyrido[4,3-d]pyrimidin-2-yl]-2-fluoro-benzamide], the inhibition at 10 µM came out at 31.3% on mGluR5 receptor and 67% against NA transporter. On 5-HT transporter, this compound came in with an inhibition at 1 µM of 45%.

For `Cc1cc(C(=O)NC2CCc3nc(NC(=O)c4cccs4)ncc3C2)ccc1Br` (stereo not drawn) [Example 115, thiophene-2-carboxylic acid [6-(4-bromo-3-methyl-benzoylamino)-5,6,7,8-tetrahydro-quinazolin-2-yl]-amide], the inhibition at 10 µM worked out at 34.3% at mGluR5 receptor and 49% on NA transporter. This compound also gave an inhibition at 1 µM at 5-HT transporter of 56%.

On to `Cc1ccc(C(=O)N2CCc3nc(NC(=O)c4cccc5ccccc45)ncc3C2)cc1F` [Example 154, naphthalene-1-carboxylic acid [6-(3-fluoro-4-methyl-benzoyl)-5,6,7,8-tetrahydro-pyrido[4,3-d]pyrimidin-2-yl]-amide], for which the inhibition at 10 µM is 30.7% at mGluR5 receptor and 50% at NA transporter.

Regarding `O=C(Nc1ncc2c(n1)CCN(C(=O)c1ccc(F)cc1F)C2)c1ccc(Cl)cc1` [Example 152, 4-chloro-N-[6-(2,4-difluoro-benzoyl)-5,6,7,8-tetrahydro-pyrido[4,3-d]pyrimidin-2-yl]-benzamide], at mGluR5 receptor, the inhibition at 10 µM worked out at 34%. Also, the inhibition at 1 µM against 5-HT transporter worked out at 33%.

For the compound `CCc1ccc(C(=O)Nc2ncc3c(n2)CCN(S(=O)(=O)c2ccc(OC)cc2)C3)cc1` [Example 172, 4-ethyl-N-[6-(4-methoxy-benzenesulfonyl)-5,6,7,8-tetrahydro-pyrido[4,3-d]pyrimidin-2-yl]-benzamide], the inhibition at 10 µM on mGluR5 receptor was 70.1%; at NA transporter, 85%. This compound showed an inhibition at 1 µM against 5-HT transporter of 57%.

Compound `O=C(Nc1ncc2c(n1)CCN(S(=O)(=O)Cc1ccccc1)C2)c1ccc(F)cc1` [Example 178, 4-fluoro-N-(6-phenylmethanesulfonyl-5,6,7,8-tetrahydro-pyrido[4,3-d]pyrimidin-2-yl)-benzamide] displayed an inhibition at 10 µM on mGluR5 receptor of 45.3%.

`Cc1ccc(C(=O)Nc2ncc3c(n2)CCN(C(=O)COc2cccc(Cl)c2)C3)cc1` [Example 189, N-{6-[2-(3-chloro-phenoxy)-acetyl]-5,6,7,8-tetrahydro-pyrido[4,3-d]pyrimidin-2-yl}-4-methyl-benzamide]: the inhibition at 10 µM on mGluR5 receptor stood at 39.5%; against NA transporter it was 53%. Moreover, the inhibition at 1 µM against 5-HT transporter is 46%.

As to `Cc1ccc(C(=O)Nc2ncc3c(n2)CCN(S(=O)(=O)c2cc(F)ccc2C)C3)cc1` [Example 107, N-[6-(5-fluoro-2-methyl-benzenesulfonyl)-5,6,7,8-tetrahydro-pyrido[4,3-d]pyrimidin-2-yl]-4-methyl-benzamide], the figures for the inhibition at 10 µM at mGluR5 receptor and on NA transporter were 38.2% and 39%, respectively. Also, on 5-HT transporter, the inhibition at 1 µM worked out at 36%.

Turning to `CCCCC(C)CCC(=O)N1CCc2nc(NC(=O)c3cccc4ccccc34)ncc2C1` (stereo not drawn) [Example 193, naphthalene-1-carboxylic acid [6-(4-methyl-octanoyl)-5,6,7,8-tetrahydro-pyrido[4,3-d]pyrimidin-2-yl]-amide], the inhibition at 10 µM is 51.8% at mGluR5 receptor and 43% against NA transporter. The compound further displayed an inhibition at 1 µM at 5-HT transporter of 38%.

`O=C(Cc1cccc2ccccc12)NC1CCc2nc(NC(=O)c3cccs3)ncc2C1` (stereo not drawn) [Example 177, thiophene-2-carboxylic acid [6-(2-naphthalen-1-yl-acetylamino)-5,6,7,8-tetrahydro-quinazolin-2-yl]-amide] came in with an inhibition at 10 µM at mGluR5 receptor of 42%. Moreover, the inhibition at 1 µM against 5-HT transporter amounted to 39%.

Turning to `Cc1ccc(S(=O)(=O)N2CCc3nc(NC(=O)c4cccc(F)c4)ncc3C2)cc1` [Example 143, 3-fluoro-N-[6-(toluene-4-sulfonyl)-5,6,7,8-tetrahydro-pyrido[4,3-d]pyrimidin-2-yl]-benzamide], the inhibition at 10 µM is 37.2% on mGluR5 receptor and 53% against NA transporter.

In turn, `Cc1nc(C(F)(F)F)ccc1C(=O)NC1CCc2nc(NC(=O)c3ccc(F)cc3)ncc2C1` (stereo not drawn) [Example 197, N-[2-(4-fluoro-benzoylamino)-5,6,7,8-tetrahydro-quinazolin-6-yl]-2-methyl-6-trifluoromethyl-nicotinamide] yielded an inhibition at 10 µM on mGluR5 receptor of 32.1%.

`CCOc1ccccc1C(=O)Nc1ncc2c(n1)CCN(S(=O)(=O)c1ccccc1C(=O)OC)C2` [Example 82, 2-[2-(2-ethoxy-benzoylamino)-7,8-dihydro-5H-pyrido[4,3-d]pyrimidine-6-sulfonyl]-benzoic acid methyl ester]: the figures for the inhibition at 10 µM on mGluR5 receptor and against NA transporter were 36.3% and 32%, respectively.

On mGluR5 receptor, `COc1cccc(C(=O)Nc2ncc3c(n2)CCN(S(=O)(=O)c2cc(Br)ccc2OC)C3)c1` [Example 129, N-[6-(5-bromo-2-methoxy-benzenesulfonyl)-5,6,7,8-tetrahydro-pyrido[4,3-d]pyrimidin-2-yl]-3-methoxy-benzamide] yielded an inhibition at 10 µM of 51.1%.

On to `CC(C)(C)c1ccc(C(=O)Nc2ncc3c(n2)CCN(C(=O)c2csc(-c4ccccc4)n2)C3)cc1` [Example 29, 4-tert-butyl-N-[6-(2-phenyl-thiazole-4-carbonyl)-5,6,7,8-tetrahydro-pyrido[4,3-d]pyrimidin-2-yl]-benzamide], for which the inhibition at 10 µM on mGluR5 receptor turned out to be 40.5%.

Take `O=C(CCCCCNC(=O)OCc1ccccc1)NC1CCc2nc(NC(=O)c3ccc(F)cc3)ncc2C1` (stereo not drawn) [Example 181, {5-[2-(4-fluoro-benzoylamino)-5,6,7,8-tetrahydro-quinazolin-6-ylcarbamoyl]-pentyl}-carbamic acid benzyl ester]: the inhibition at 10 µM on mGluR5 receptor was 36.4%.
